From patent US8071548B2, “Method of reducing injury to mammalian cells” (Nono, Inc., priority 2002, dated 2011) come the findings set out here.

In data set [1] the test system is traumatic brain injury. Description: Lateral fluid percussion injury model of TBI. It counts as in vivo, Sprague-Dawley rats. The settings on record: analyzed 24 h after injury. As to the method: Adult male Sprague-Dawley rats weighing approximately 350 g were ordered from Charles River and anesthesia was induced using a gaseous mixture of 1:2 oxygen:nitrous oxide with 2% halothane. The halothane level was reduced to 1% during surgical manipulations and weights were recorded prior to preparatory surgery. The preparatory surgery for these experiments included the cannulation of the left femoral vein and a 5 mm diameter craniotomy. The venous cannula is sealed and tucked inside the animal whereupon the wound is sutured. The center of the craniotomy lies about 2.5 mm to the right of the sagittal suture, between the bregma and lambda. A modified Leur-loc is attached to the perimeter of the craniotomy with superglue (FIG. 28).
Dental acrylic (GC America Inc, Alsip, Ill.) is applied around the modified Leur-loc to seal it into place. A small piece of gelfoam is placed into the opening and the skin is sutured over the entire setup. The animal is then returned to its cage. The following day, the animal is re-anesthetized, weighed, and its wound is re-opened. The gelfoam is removed and the animal is attached to the fluid percussion device via the modified Leur-loc. At this time, the animal is given a ˜20 ms saline injection at approximately 2.4 atmospheres (350 mV on the oscilloscope) using the fluid percussion injury device (Custom Design & Fabrication, Richmond, Va.) (FIG. 29).
On occasion, the animal ceases spontaneous breathing following the injury and 1-2 chest compressions are required for resuscitation. The modified Leur-loc along with the dental acrylic is removed en bloc immediately following the injury. The animal is placed on 100% oxygen while its wound is cleaned and resealed with Vetbond tissue adhesive (3M Worldwide, Maplewood, Minn.). The rat's body temperature during the recovery time is maintained at 37° C. with a homeothermic warming blanket (Harvard Bioscience Inc, Holliston, Mass.). The amount of time necessary for the righting reflex to return is recorded and the animal is placed back into its cage. At 3 h post-injury, the animal is re-anesthetized and weighed again. The wound overlying the femoral cannula is opened and the cannula is cleaned out using heparinized saline. […] The cannula is sealed, tucked again into the animal, and the wound is re-sutured. At 24 h post-injury, the animal is re-anesthetized and weighed again. The rat is transcardially perfused using heparinized saline to clean out the cardiovascular system, followed by a 4% formalin fixative solution. The rat is decapitated and left in the fixative solution overnight. The brain is extracted the following day and processed. The volume of damaged brain (FIG. 26, right graph) is assessed according to the same methods as described in Aarts et al., 2002, for assessing stroke volumes. […]

Data set [2] concerns nitrotyrosine. As to the kind of experiment: Nitrotyrosine immunostaining (peroxynitrite formation). It is filed as cell-based, mouse. The conditions noted are these: pretreatment, 12 h post-NMDA challenge. As to the method: Cultures were fixed with warm 4% paraformaldehyde and 4% sucrose in PBS for 20 min, permeabilized with 0.1% Triton X-100 for 10 min at 4° C., and blocked with 10% goat serum in PBS for 1 h at RT. Immunofluorescence was visualized with an inverted Nikon microscope using a 40× oil immersion lens. FITC, rhodamine and Hoechst were visualized using 465-495 excitation and 515-555 nm emission, 510-560 nm excitation and 590 nm emission, and 340 nm excitation and 510 nm emission, respectively. Active caspase 3 was labelled by incubating the cultures with a purified rabbit monoclonal anti-active caspase 3 antibody (1:300; BD PharMingen) and a fluorescein-conjugated goat anti-mouse IgG secondary antibody (1:500; Transduction Labs). Nitrotyrosine was labelled by incubating the cultures with a rabbit polyclonal α-nitrotyrosine primary antibody (1:300; Upstate) and a rhodamine-conjugated goat anti-rabbit IgG secondary antibody (1:500; Transduction Labs). AIF was labelled by incubating the cultures with an AIF antibody (1:200; Santa Cruz, (Zhang et al., 2002)) and a rhodamine-conjugated goat anti-mouse IgG secondary antibody (1:500; Transduction Labs). In some experiments, nuclei were counter-stained with Hoechst 33258 (1:5,000, Transduction Labs).

Data set [3] can be described thus: Baseline behaviours after single i.v. injection. It is filed as in vivo, Sprague-Dawley rats. The settings on record: over 4 hours, 0.5-50 nmols/g.
In data set [4] the test system is reactive oxygen species. As to the kind of experiment: ROS production (DHR fluorescence). It counts as cell-based, mouse. As to the method:
The production of reactive oxygen species (ROS) was measured with DHR. In brief, DHR is oxidized to a fluorescent rhodamine-123 (Royall and Ischiropoulos, 1993), and the consequent rise in fluorescence may be used as an indicator of ROS production.
ROS were measured as previously described (Tymianski et al., 1998; Aarts et al., 2003). In brief, cultures were pre-loaded for 30 min with 5 μM DHR and subjected to the experimental insult. DHR fluorescence was measured in a multiwell plate fluorescence scanner (Cytofluor II, PerSeptive Biosytems, Framingham, Mass., USA; 485 nm excitation, 530 emission). DHR fluorescence was normalized to baseline using the formula at (Ft−Fo)/F0; Where Ft=DHR fluorescence at time t, Fo=DHR fluorescence at time zero. DHR fluorescence images were also acquired using a microscope (465-495 nm excitation and 515-555 nm emission) as described above for TMRM.

In data set [5] the test system is transient middle cerebral artery occlusion. Description: Transient MCAO, pre-treatment study. It is filed as in vivo, Sprague-Dawley rats. As to the method: Next, I examined whether pretreatment with Tat-peptides would reduce stroke damage. Experiments were carried out in adult male Sprague-Dawley rats subjected to transient middle cerebral artery occlusion (MCAO) for 90 minutes by the intraluminal suture method (36,37). Animals were fasted overnight and injected with atropine sulfate (0.5 mg/kg IP). After 10 minutes anesthesia was induced with 3.5% halothane in a mixture of nitrous oxide and oxygen (Vol. 2:1) and maintained with 0.8% halothane. Rats were orally intubated, mechanically ventilated, and paralyzed with pancuronium bromide (0.6 mg/kg IV). Body temperature was maintained at 36.5-37.5° C. with a heating lamp. Polyethylene catheters in the femoral artery and vein were used to continuously record blood pressure and to sample blood for gas and pH measurements. […] This produces an extensive infarction encompassing the cerebral cortex and basal ganglia. […] Physiological parameters (body temperature, blood pressure, blood gases) were monitored and maintained throughout the experiment (Table 1). All experimental manipulations and analyses of data were performed by individuals blinded to the treatment groups. The extent of cerebral infarction was measured 24 h after MCAO onset (FIG. 7C inset). The postural reflex test (38), and the forelimb placing test (39) were used to grade neurological function on a scale of 0 to 12 (normal=0; worst=12) during MCAO (at 50 minutes) and 24 h thereafter.

Data set [6] relates to cultured cortical neurons. Description: NMDA excitotoxicity in cultured cortical neurons (propidium iodide fluorescence). It counts as cell-based, mouse.

In the case of Tat-KLSSIESDV [Tat-NR2B9c], the “total volume of injured brain” value in data set [1] (3 hours after TBI) was “significantly reduced”. In addition, the “fraction of dead cells in cerebral cortex and hippocampus ipsilateral to the injury” value in data set [1] (via femoral cannula 3 hours after TBI) is recorded as “markedly reduced fraction of dead cells”. In addition, in data set [2], the nitrotyrosine immunoreactivity entry is “reduced nitrotyrosine immunoreactivity”. Besides, the “changes in sensory-motor, open field, or exploratory behaviour” value in data set [3] is listed as “No significant changes”. Besides, the “ROS production by stretch alone” value in data set [4] (50 nM pretreatment) is reported as “has no effect”. For the same substance, the “NMDA-evoked ROS production (DHR oxidation)” value in data set [4] (50 nM pretreatment 30 min, stretched and unstretched cultures) is reported as “reduced NMDA-evoked ROS production”. Moreover, in data set [5] (3 nMoles/g i.v. 45 min prior to MCAO, 24 h after MCAO onset), the “reduction in cortical infarction” value was determined as 70.7±11.23%. Moreover, in data set [5] (3 nMoles/g i.v. 45 min prior to MCAO, 24 h after MCAO onset, vs controls), the “reduction of volume of total cerebral infarction” value turned out to be 54.6±11.27%. Besides, in data set [5] (3 nMoles/g i.v. bolus 45 min prior to MCAO), the “24 h neurological scores” value is “trend toward improvement”. For the same substance, the “vulnerability of neurons to NMDA toxicity, post-treatment” value in data set [6] (50 nM applied after 1 h NMDA challenge (0-100 μM), cell death at 20 h) is given as “significantly reduced”. Further, the “NMDA-evoked cell death, pre-treatment” value in data set [6] (50 nM for 1 h, then NMDA 0-100 μM 1 h, 20 h observation) was “significantly reduced”.
